Measured values as given in the C3SDB collision cross section collection.
Blank lines part the entries; values can stand above or below the compound they belong to.

Conditions: instrument: DT, stepped-field

SMILES: CCCCCCCCCCCCC=CC[C@@H](O)[C@H](CO[C@@H]1O[C@H](CO)[C@@H](O)C(O)C1O)NC(=O)CC=CCC=CCCCCCCCCCCCCCCC (some centres not stated) [GlcCer(40:03)]
- collision cross section (N2) ([M+Na]+): 290.28 Å²

SMILES: CCCCCCCCCCCCC=CC[C@@H](O)[C@H](CO)NC(=O)CC=CCCCCCCCCCCCCCCCCCCCCCC [Cer(44:02)]
- collision cross section (N2) ([M+H-H2O]+): 279.7 Å²

SMILES: CCCCCCCCCCCCCCCCCCCCCCCC(=O)N[C@@H](CO[C@@H]1O[C@H](CO)[C@@H](O)C(O)C1O)[C@H](O)CCCCCCCCCCCCCCC (some centres not stated) [GlcCer(42:00)]
- collision cross section (N2) ([M+H]+): 302.3 Å²
- collision cross section (N2) ([M+Na]+): 303.14 Å²

SMILES: CCCCCCCCCCCCCCCCCCCCCCCCCCCCC(=O)N[C@@H](CO[C@@H]1O[C@H](CO)[C@@H](O)C(O)C1O)[C@H](O)CCCCCCCCCCCCCCC (some centres not stated) [GlcCer(47:00)]
- collision cross section (N2) ([M+Na-2H2O]+): 313.61 Å²

SMILES: CCCCCCCCCCCCC=CC[C@@H](O)[C@H](CO)NC(=O)CC=CCCCCCCCCCCCCCCCCCC [Cer(40:02)]
- collision cross section (N2) ([M+H-H2O]+): 267.47 Å²
- collision cross section (N2) ([M+H]+): 272.27 Å²

SMILES: CCCCCCCCCCCCC=CC[C@@H](O)[C@H](COP(=O)([O-])OCC[N+](C)(C)C)NC(=O)CC=CCCCCCCCCCCCCCCCCCCCCCC [SM(44:02)]
- collision cross section (N2) ([M+H]+): 307.52 Å²
- collision cross section (N2) ([M+Na]+): 306.5 Å²

SMILES: CC/C=C\C/C=C\C/C=C\C/C=C\C/C=C\C/C=C\CCC(=O)O[C@H](COC(=O)CCCCCCCCC/C=C\CCCCCCCC)COP(=O)(O)OC[C@H](N)C(=O)O [PS(42:07)]
- collision cross section (N2) ([M+2Na-H]+): 296.35 Å²

SMILES: CC/C=C\C/C=C\C/C=C\C/C=C\C/C=C\C/C=C\CCC(=O)O[C@H](COC(=O)CCCCCCCCC/C=C\CCCCCCCCCC)COP(=O)(O)OC[C@H](N)C(=O)O [PS(44:07)]
- collision cross section (N2) ([M+2Na-H]+): 303.11 Å²

SMILES: CCCCC/C=C\C/C=C\C/C=C\C/C=C\CCCCCC(=O)O[C@H](COC(=O)CCCCCCC/C=C\C/C=C\CCCCC)COP(=O)(O)OC[C@H](N)C(=O)O [PS(40:06)]
- collision cross section (N2) ([M+2Na-H]+): 295.61 Å²
- collision cross section (N2) ([M+H]+): 287.73 Å²
- collision cross section (N2) ([M+K]+): 292.76 Å²
- collision cross section (N2) ([M+Na]+): 291.7 Å²
- collision cross section (N2) ([M-H]-): 289.09 Å²

SMILES: CCCCCCCCCCCCCCCCCCCCCCCC(=O)N[C@@H](COP(=O)([O-])OCC[N+](C)(C)C)[C@H](O)CCCCCCCCCCCCCCC [SM(42:00)]
- collision cross section (N2) ([M+HCOO]-): 308.73 Å²
- collision cross section (N2) ([M+H]+): 305.33 Å²

SMILES: CCCC/C=C\CCCCCCCC(=O)O[C@H](COCCCCCCCCCCCCCCCCCC)COP(=O)(O)OCCN [PE(o32:01)]
- collision cross section (N2) ([M+2Na-H]+): 268.35 Å²

SMILES: CCCCCCCCCCCCC=CC[C@@H](O)[C@H](CO[C@@H]1O[C@H](CO)[C@@H](O)C(O)C1O)NC(=O)CCCCCCCCCCCCCCCCCCCC (some centres not stated) [GlcCer(39:01)]
- collision cross section (N2) ([M+Na]+): 291.95 Å²

SMILES: CC/C=C\C/C=C\C/C=C\CCCCCCCC(=O)O[C@H](COC(=O)CCCCC/C=C\C/C=C\C/C=C\C/C=C\CCCCC)COP(=O)(O)OC[C@H](N)C(=O)O [PS(40:07)]
- collision cross section (N2) ([M+2Na-H]+): 290.15 Å²
- collision cross section (N2) ([M+Na]+): 289.65 Å²
- collision cross section (N2) ([M-H]-): 287.37 Å²

SMILES: CCCCC/C=C\C/C=C\C/C=C\C/C=C\CCCCCC(=O)O[C@H](COC(=O)CCC/C=C\C/C=C\C/C=C\C/C=C\CCCCC)COP(=O)(O)OCCN [PE(42:08)]
- collision cross section (N2) ([M+Na]+): 290.41 Å²

SMILES: CCCCCCCCCCCCCCCCCC(=O)N[C@@H](CO)[C@H](O)CCCCCCCCCCCCCCC [Cer(36:00)]
- collision cross section (N2) ([M+H]+): 261.92 Å²

SMILES: CCCCCCCCCCCCC=CC[C@@H](O)[C@H](COP(=O)([O-])OCC[N+](C)(C)C)NC(=O)CCCCCCCCCCCCCCCCC [SM(36:01)]
- collision cross section (N2) ([M+Cl]-): 288.69 Å²
- collision cross section (N2) ([M+HCOO]-): 290.34 Å²
- collision cross section (N2) ([M+H]+): 286.24 Å²
- collision cross section (N2) ([M+K]+): 288.38 Å²
- collision cross section (N2) ([M+Na-H2O]+): 280.09 Å²
- collision cross section (N2) ([M+Na]+): 285.86 Å²

SMILES: CC/C=C\C/C=C\C/C=C\C/C=C\C/C=C\C/C=C\CCC(=O)O[C@H](COC(=O)CCCCCC/C=C\C/C=C\C/C=C\CCCCC)COP(=O)(O)OCCN [PE(42:09)]
- collision cross section (N2) ([M+Na]+): 288.64 Å²

The remaining lines, values ahead:

- collision cross section (N2) ([M+H]+): 292.62 Å²
- collision cross section (N2) ([M+Na]+): 296.28 Å²
SMILES: CCCCC/C=C\C/C=C\CCCCCCCCCCCC(=O)O[C@H](COC(=O)CCCCCCC/C=C\CCCCCCCC)COP(=O)(O)OC[C@H](N)C(=O)O [PS(40:03)]

- collision cross section (N2) ([M+2Na-H]+): 279.42 Å²
- collision cross section (N2) ([M+H]+): 273.34 Å²
- collision cross section (N2) ([M+K]+): 278.94 Å²
- collision cross section (N2) ([M+Na]+): 277.57 Å²
- collision cross section (N2) ([M-H]-): 269.84 Å²
SMILES: CCCCC/C=C\C/C=C\CCCCCCCCCC(=O)O[C@H](COC(=O)CCCCCCC/C=C\CCCCCC)COP(=O)(O)OCCN [PE(36:03)]

- collision cross section (N2) ([M+2Na-H]+): 282.48 Å²
SMILES: CCCCC/C=C\C/C=C\C/C=C\C/C=C\C/C=C\CCC(=O)O[C@H](COCCCCCCCCCCCCCCCC)COP(=O)(O)OCCN [PE(o38:05)]

- collision cross section (N2) ([M+2Na-H]+): 299.44 Å²
- collision cross section (N2) ([M+H]+): 294.02 Å²
SMILES: CCCCC/C=C\C/C=C\CCCCCCCCCCCC(=O)O[C@H](COC(=O)CCCCCCCCCCCCCCCCC)COP(=O)(O)OC[C@H](N)C(=O)O [PS(40:02)]

- collision cross section (N2) ([M+2Na-H]+): 281.53 Å²
SMILES: CCCCC/C=C\C/C=C\C/C=C\C/C=C\CCCCCC(=O)OC[C@H](COP(=O)(O)OC[C@H](N)C(=O)O)OC(=O)CCCCCCCCCCCCC [PS(36:04)]

- collision cross section (N2) ([M+Cl]-): 299.55 Å²
- collision cross section (N2) ([M+HCOO]-): 299.75 Å²
- collision cross section (N2) ([M+H]+): 295.66 Å²
- collision cross section (N2) ([M+Na]+): 292.53 Å²
SMILES: CCCCCCCCCCCCC=CC[C@@H](O)[C@H](COP(=O)([O-])OCC[N+](C)(C)C)NC(=O)CC=CCCCCCCCCCCCCCCCCCC [SM(40:02)]

- collision cross section (N2) ([M+2Na-H]+): 292.46 Å²
- collision cross section (N2) ([M+H]+): 287.73 Å²
- collision cross section (N2) ([M-H]-): 287.56 Å²
SMILES: CCCCCC/C=C\CCCCCCCC(=O)OC[C@H](COP(=O)(O)OC[C@H](N)C(=O)O)OC(=O)CCCCCCCCC/C=C\CCCCCCCCCC [PS(38:02)]

- collision cross section (N2) ([M+Na]+): 279.74 Å²
SMILES: CCCCC/C=C\C/C=C\CCCCCCCCCCCC(=O)O[C@H](COC(=O)CCCCCCCCCCCCCCC)COP(=O)(O)O [PA(38:02)]

- collision cross section (N2) ([M+2Na-H]+): 306.87 Å²
SMILES: CCCCC/C=C\C/C=C\C/C=C\C/C=C\CCCCCC(=O)OC[C@H](COP(=O)(O)OC[C@H](N)C(=O)O)OC(=O)CCCCCCCCC/C=C\CCCCCCCCCC [PS(44:05)]

- collision cross section (N2) ([M+2Na-H]+): 279.57 Å²
- collision cross section (N2) ([M+Na]+): 279.26 Å²
SMILES: CCCC/C=C\CCCCCCCC(=O)OC[C@H](COP(=O)(O)OCCN)OC(=O)CCCCCCCCCCCCCCCCCCCC [PE(35:01)]

- collision cross section (N2) ([M+2Na-H]+): 293.52 Å²
SMILES: CCCCC/C=C\C/C=C\C/C=C\C/C=C\CCCCCC(=O)O[C@H](COCCCCCCCCCCCCCCCCCC)COP(=O)(O)OCCN [PE(o40:04)]

- collision cross section (N2) ([M+Cl]-): 289.37 Å²
- collision cross section (N2) ([M+HCOO]-): 289.31 Å²
- collision cross section (N2) ([M+H]+): 279.51 Å²
- collision cross section (N2) ([M+K]+): 283.28 Å²
- collision cross section (N2) ([M+Na]+): 283.1 Å²
SMILES: CCCCCC/C=C\CCCCCCCCCC(=O)O[C@H](COC(=O)CCCCCCC/C=C\CCCCCC)COP(=O)([O-])OCC[N+](C)(C)C [PC(34:02)]

- collision cross section (N2) ([M+2Na-H]+): 283.07 Å²
- collision cross section (N2) ([M+Na]+): 281.79 Å²
SMILES: CCCCC/C=C\C/C=C\C/C=C\C/C=C\CCCCCC(=O)O[C@H](COC(=O)CCCCCCC/C=C\CCCCCCCC)COP(=O)(O)O [PA(40:05)]

- collision cross section (N2) ([M+2Na-H]+): 279.47 Å²
- collision cross section (N2) ([M+H]+): 272.47 Å²
- collision cross section (N2) ([M+Na]+): 277.92 Å²
SMILES: CCCCC/C=C\C/C=C\C/C=C\CCCCC(=O)O[C@H](COCCCCCCCCCCCCCCCCCC)COP(=O)(O)OCCN [PE(o36:03)]

- collision cross section (N2) ([M+Cl]-): 287.96 Å²
- collision cross section (N2) ([M+HCOO]-): 288.8 Å²
- collision cross section (N2) ([M+H]+): 277.12 Å²
- collision cross section (N2) ([M+Na]+): 281.98 Å²
SMILES: CCCC/C=C\CCCCCCCC(=O)OC[C@H](COP(=O)([O-])OCC[N+](C)(C)C)OC(=O)CCCCCCCCC/C=C\C/C=C\CCCCC [PC(34:03)]

- collision cross section (N2) ([M+2Na-H]+): 279.8 Å²
- collision cross section (N2) ([M+Na]+): 277.43 Å²
SMILES: CCCCC/C=C\C/C=C\CCCCCCCCCC(=O)O[C@H](COC(=O)CCCCCCC/C=C\CCCCCCCC)COP(=O)(O)O [PA(38:03)]

- collision cross section (N2) ([M+Cl]-): 298.46 Å²
- collision cross section (N2) ([M+HCOO]-): 298.03 Å²
SMILES: CCCCC/C=C\C/C=C\C/C=C\CCCCCCC(=O)O[C@H](COC(=O)CCCCCCC/C=C\CCCCCCCC)COP(=O)([O-])OCC[N+](C)(C)C [PC(38:04)]

- collision cross section (N2) ([M+H]+): 284.63 Å²
- collision cross section (N2) ([M+Na]+): 287.14 Å²
SMILES: CCCCCCCC/C=C\CCCCCCCC(=O)O[C@H](COC(=O)CCCCCCCCCCCCCCCC)COP(=O)([O-])OCC[N+](C)(C)C [PC(35:01)]

- collision cross section (N2) ([M+2Na-H]+): 277.05 Å²
- collision cross section (N2) ([M+K]+): 277.24 Å²
- collision cross section (N2) ([M-H]-): 269.7 Å²
SMILES: CCCCCCCC/C=C\C/C=C\CCCCC(=O)OC[C@H](COP(=O)(O)OCCN)OC(=O)CCCC/C=C\C/C=C\CCCCCCCC [PE(36:04)]

- collision cross section (N2) ([M+2Na-H]+): 273.55 Å²
- collision cross section (N2) ([M+Na]+): 273.65 Å²
SMILES: CCCCC/C=C\C/C=C\CCCCCCCC(=O)O[C@H](COCCCCCCCCCCCCCCCC)COP(=O)(O)OCCN [PE(o34:02)]

- collision cross section (N2) ([M+2Na-H]+): 292.02 Å²
- collision cross section (N2) ([M+Cl]-): 296.27 Å²
- collision cross section (N2) ([M+HCOO]-): 296.46 Å²
- collision cross section (N2) ([M+H]+): 288.22 Å²
- collision cross section (N2) ([M+K]+): 291.07 Å²
- collision cross section (N2) ([M+Na]+): 290.25 Å²
SMILES: CCCCCCCCCCC/C=C\CCCCC(=O)O[C@H](COC(=O)CCCCCCCCCCCCCCCCC)COP(=O)([O-])OCC[N+](C)(C)C [PC(36:01)]

- collision cross section (N2) ([M+Na]+): 297.42 Å²
SMILES: CCCCC/C=C\C/C=C\C/C=C\C/C=C\CCCC(=O)O[C@H](COC(=O)CCCCCCCCCCCCCCCCCCC)COP(=O)([O-])OCC[N+](C)(C)C [PC(40:04)]
